Common to all, as to assay: biochemical
One assay addresses T1, FimHtrJ96 (Escherichia coli, UniProt P08191).
T1 construct: coding for the lectin domain of FimH (residues 1-158) with a C-terminal 6-histidine tag; made in house; host or cells: E. coli HB101 (lacking the fim operon), periplasmic extract, plasmid pPKL241
It counts as binding, uropathogenic E. coli strain J96. As to conditions: for Kd: Table 3, [3H]-mannose displacement assay (mannose measured directly), read-out: KD J96; for ΔG° J96: Table 3, calculated from KD. How it is done: To measure the dissociation constant for FimH:alkyl or aryl-mannoside binding, two different binding assays were developed. The first binding assay uses [^3H]-mannose. The amount of radioactively labeled mannose bound to FimHtrJ96 was measured at six different concentrations of [^3H]-mannose, and a hyperbolic curve fitted to the resulting data (FIG. 1A). FimHtrJ96 corresponds to the carbohydrate (mannose) binding domain of FimH from the uropathogenic E. coli strain J96. The dissociation equilibrium constant was determined from this graph at the concentration of mannose […], which corresponds to occupation of half of the binding sites.
Surface Plasmon Resonance measurements were performed on a Biacore3000™. In a first experiment, the kinetic constants and maximal binding were determined for the FimH-antibody interaction. Next, a fixed concentration of FimH (close to the KD of the FimH-antibody interaction) in combination with varying concentrations of carbohydrate, were used to determine the dissociation equilibrium constant of the FimH-saccharide interaction in a competition experiment. Every measurement was repeated at least twice, including testing the variation between different protein and saccharide batches.
To eliminate the possibility of different binding strength for full length FimH and FimHtrJ96, the binding of alpha-D-mannose to FimC:FimH complex was also measured. […] The inhibition of [^3H]-mannose binding was used in a displacement assay to determine the dissociation constant for a synthetic butyl mannoside by measuring the amount of [^3H]-mannose bound to the protein in the presence of increasing amounts of the inhibitor (FIG. 1B). […] To investigate the effect of sequential addition of methyl groups to the O1 oxygen of D-mannose, a series of alkyl mannosides were synthesized and the dissociation constants determined using the [^3H]-mannose displacement assay and by surface plasmon resonance (Table 1).
Surface Plasmon Resonance measurements were performed on a Biacore3000™. The Fab fragments of a monoclonal antibody against FimH were covalently immobilised via lysines at 1000 Resonance Units (1000 pg ligand/mm^2) in flowcell Fc2 on a CM5 biasensor chip (BIAapplications Handbook, Biacore AB, Uppsala, Sweden). Immobilisation buffer was 100 mM NaAc pH 5.0 with 100 mM NaCl. The reference flowcell Fc1 was left blank.
Binding of FimH to the immobilized antibody was measured with a Biacore 3000 instrument in running buffer (phosphate buffered saline with 0.005% surfactant P20 and 3 mM EDTA), on both flowcells Fc1 and Fc2 simultaneously, at a flow rate of 30 μl/min and at 25° C. Complete dissociation of FimH was done with running buffer before starting a new binding cycle. For all measurements, the association time was 3 minutes, the dissociation time was 30 min. All binding cycles were performed in duplicate, including a zero concentration cycle of FimH (injection of running buffer).
In a first experiment, the kinetic constants, ka and kd, and the maximal binding Rmax, were determined for the FimH-antibody interaction (FimH concentrations (nM): 2000, 1000, 500, 250, 125, 62.5, 31.25, 15.625, 7.818, 3.911, 1.957, 0). All analyses were performed with the BIAeval software. A Langmuir binding isotherm with a 1:1 stoichiometry was fitted to the data, from which the kinetic constants and maximal binding were obtained.
In the next experiment, samples containing a fixed concentration of FimH (close to the KD of the FimH-antibody interaction) in combination with varying concentrations of saccharide, were used to determine the dissociation constant of the FimH-saccharide interaction in a competition experiment. First, ten-fold dilutions of the saccharide solution were used to determine the concentration range for binding of the saccharide to FimH.

A further assay concerns the target T2, FimHtrCl#4 (Escherichia coli, UniProt P08191, G94E/N91S/S99N/V48A).
T2 construct: coding for the lectin domain of FimH (residues 1-158) with a C-terminal 6-histidine tag; made in house; host or cells: E. coli HB101 (lacking the fim operon), periplasmic extract, plasmid pMAS146
Format: binding, E. coli UPEC (Cl#4) strain. As to conditions: for Kd: Table 3, [3H]-mannose displacement assay (mannose measured directly), read-out: KD CI#4; for ΔG° CI#4: Table 3, calculated from KD. As to the method:
(§1) To investigate if these variations reflect differences in sugar binding at the molecular level, the dissociation constants of a series of mannosides for the FimH lectin domain from a fecal (F18) and from a UPEC (Cl#4) strain were determined. […] For comparison, binding to FimHtrJ96 was also investigated. Both F18 and Cl#4 FimH lectin domains were cloned, expressed, and purified in the same way as FimHtrJ96 (Schembri et al., 2000). These two lectin domains differ from the lectin domain of FimHJ96 by substitutions Val27Ala, Asn70Ser and Ser78Asn. In addition, FimHCl#4 differs from the other two variants by a Gly73Glu substitution. […] Five different tri-mannosides corresponding to high-mannose substructures were synthesized, and their binding to FimHtrJ96, FimHtrF18 and FimHtrCl#4 measured using our [^3H]-mannose displacement assay (Table 3). Alpha-D-mannose binding was first directly measured for each of the FimH variants.
(§2) [^3H]alpha-D-mannose was obtained from Amersham. […] Syntheses of tri-mannosides was as reported earlier by Oscarson and co-workers (1993). Weighed amounts of tri-mannosides were dissolved in double distilled water to give stock solutions of 0.87 M man-(1,2)-man-(1,2)-man, 0.25 M man-(1,2)-man-(1,3)-man, 0.27 M man-(1,2)-man-(1,6)-man, 0.30 M man-(1,3)-man-(1,6)-man, 0.13 M man-(1,6)-man-(1,6)-man. Similarly, alkyl mannosides were dissolved in double distilled water to give stock solutions of 100 mM methyl mannoside, 59.8 mM ethyl mannoside, 45.9 mM propyl mannoside, 51.9 mM butyl mannoside, 17.3 mM pentyl mannoside, 20.8 mM hexyl mannoside, 15.3 mM heptyl mannoside, 15.2 mM octyl mannoside. pNPalphaMan and MeUmbalphaMan (6 mg each) were dissolved in 20 μl DMSO and diluted to 20 mM using double distilled water. Binding experiments were performed using six different concentrations of [^3H]-alpha-D-mannose (final concentrations 43.5 μM, 29.0 μM, 19.3 μM, 12.9 μM, 8.6 μM, 5.7 μM). FimHtrJ96 obtained by growing bacteria in minimal medium was used in all binding experiments. 180 μl protein at a concentration of about 500 nM was mixed with 20 μl of the radioactive ligand, and incubated at 37° C. for 20 min. To separate free ligand from bound, the mixture was rapidly filtrated through a Protran BA 85 Cellulose-nitrate filter (Schleicher & Schuell, Dassel, Germany), and washed once with 1 ml of ice-cold 1× PBS (phosphate buffered saline). Filter-bound radioactivity was measured by scintillation spectrometry within 24 hours. The displacement experiments were performed using six different concentrations (final concentrations in the range 0.0˜43.5 μM) of the inhibitor, in the presence of 43.5 μM [^3H]-alpha-D-mannose. 20 μl radioactive ligand, 20 μl inhibitor at decreasing concentrations, and 160 μl protein (500 nM) were mixed, and the experiments performed as above. All experiments were performed in duplicates. For determination of KD for α-D-mannose, a hyperbolic curve (y=P1x/(P2+x), where P2=KD) was fitted to the data. For the displacement experiments, the curve y=P1/(P2+x), where P2 is the concentration of the inhibitor displacing 50% of the labelled ligand, [I]0.5 was used instead. To calculate the inhibitor dissociation constant (KI) the Cheng & Prusoff equation (KI=[I]0.5/([L]/KL+1); KL is the constant of dissociation for the ligand) (Cheng and Prusoff, 1973), was used when both the concentration of the radioactive ligand (L) and the displacing agent (I) are in excess over the protein (LT>>PT;IT>>PT, T indicates total concentration). […] A plot of IT/((1−Y)*(LT/KL)−Y) against 1/Y gives a straight line with a slope of KI.

In the next assay the target is T3, FimHtrF18 (Escherichia coli, UniProt P08191, N91S/S99N/V48A).
T3 construct: coding for the lectin domain of FimH (residues 1-158) with a C-terminal 6-histidine tag; made in house; host or cells: E. coli HB101 (lacking the fim operon), periplasmic extract, plasmid pPKL316
T3 sequence (P08191 22-179 V48A/N91S/S99N): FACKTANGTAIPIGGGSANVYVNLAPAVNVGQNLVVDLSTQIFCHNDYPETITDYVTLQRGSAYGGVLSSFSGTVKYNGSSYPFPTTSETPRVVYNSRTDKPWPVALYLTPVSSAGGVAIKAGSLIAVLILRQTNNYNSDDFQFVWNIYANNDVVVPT
It counts as binding, E. coli fecal (F18) strain. Particulars: for Kd: Table 3, [3H]-mannose displacement assay (mannose measured directly), read-out: KD F18; for ΔG° F18: Table 3, calculated from KD. How it is done: as §1, §2

Structures are written as SMILES.

As usually defined, the Kd is a measure of binding affinity in units of concentration.

T1 sequence (P08191 22-179): as the sequence (P08191 22-179 V48A/N91S/S99N) above, with A27V, S70N, N78S counted along it
T2 sequence (P08191 22-179 V48A/N91S/G94E/S99N): as the sequence (P08191 22-179 V48A/N91S/S99N) above, with G73E counted along it

Turning to `OC[C@H]1O[C@H](O[C@@H]2[C@@H](OC[C@H]3OC(O)[C@@H](O)[C@@H](O)[C@@H]3O)O[C@H](CO)[C@@H](O)[C@@H]2O)[C@@H](O)[C@@H](O)[C@@H]1O` (stereo partly drawn) [man-(1,2)-man-(1,6)-man], at FimHtrJ96, the Kd came to 830 nM and the “ΔG° J96” value was -8.6 kcal/mol. Also, at FimHtrCl#4, the Kd came to 2200 nM and the “ΔG° CI#4” value is -8.0 kcal/mol. Further, at FimHtrF18, the Kd amounted to 1800 nM and the “ΔG° F18” value is -8.1 kcal/mol.

As to `OC[C@H]1O[C@H](O[C@@H]2[C@H](O)[C@@H](OC[C@H]3OC(O)[C@@H](O)[C@@H](O)[C@@H]3O)O[C@H](CO)[C@H]2O)[C@@H](O)[C@@H](O)[C@@H]1O` (stereo partly drawn) [man-(1,3)-man-(1,6)-man], at FimHtrJ96, the Kd amounted to 485 nM and the “ΔG° J96” value was -8.6 kcal/mol. Moreover, on FimHtrCl#4, the Kd came out at 1030 nM and the “ΔG° CI#4” value is -8.5 kcal/mol. On FimHtrF18, the Kd was found to be 730 nM and the “ΔG° F18” value was -8.7 kcal/mol.

On to `OC[C@H]1O[C@H](OC[C@H]2O[C@H](OC[C@H]3OC(O)[C@@H](O)[C@@H](O)[C@@H]3O)[C@@H](O)[C@@H](O)[C@@H]2O)[C@@H](O)[C@@H](O)[C@@H]1O` (stereo partly drawn) [man-(1,6)-man-(1,6)-man], for which, on FimHtrJ96, the Kd was found to be 1400 nM and the “ΔG° J96” value was -8.3 kcal/mol. In addition, on FimHtrCl#4, the Kd worked out at 7500 nM and the “ΔG° CI#4” value is -7.3 kcal/mol. Moreover, on FimHtrF18, the Kd was 5900 nM and the “ΔG° F18” value is -7.4 kcal/mol.

These data come from patent publication US20080171706A1, “Anti-Adhesive Compounds to Prevent and Treat Bacterial Infections” (priority 2004, published 2008).
